Data reported in US12062444B2, “Methods and compositions related to triple-negative breast cancer” (THE UNIVERSITY OF CHICAGO, priority 2017, dated 2024).
Entries after “also recorded” stand apart in the source; their conditions may differ. Read-outs that look alike come from different tables or passages of the source.

Legend:
GR LBD = target: T1, GR LBD (Homo sapiens, UniProt P04150); experiment: Ligand titration assay via fluorescence polarimetry (displacement of F-Dex); assay type: binding; settings: for Fit of FP dose response curve (half-maximal FP signal): log(inhibitor) vs. normalized response, FIG. 7
T1 construct: The wild-type GR-LBD (amino acid residues 522-777) was cloned into a pFASTBAC plasmid; 6X-His (TEV-cleavable) (cleaved yes); made in house; host or cells: SF9 insect cells (baculovirus, pFASTBAC)
T1 sequence (P04150 522-777): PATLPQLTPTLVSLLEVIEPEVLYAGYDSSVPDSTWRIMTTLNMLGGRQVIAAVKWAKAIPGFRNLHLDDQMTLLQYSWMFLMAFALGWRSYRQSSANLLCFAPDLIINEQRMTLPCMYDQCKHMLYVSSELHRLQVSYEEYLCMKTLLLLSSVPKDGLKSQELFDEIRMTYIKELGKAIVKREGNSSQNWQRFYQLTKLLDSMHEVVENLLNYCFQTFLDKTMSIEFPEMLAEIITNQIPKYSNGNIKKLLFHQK
Protocol: SF9 insect cells were transfected with recombinant bacmid and virus (collected after 6 days) was amplified prior to protein expression. […] GR-LBD was purified first using Ni-affinity chromatography followed by overnight dialysis with TEV protease to remove the His tag. Extensive dialysis into 20 mM TRIS pH 8.0, 500 mM NaCl, 5% glycerol, 0.1% CHAPS, 0.25 mM TCEP was performed to obtain non-ligand-bound GR LBD. […] The purified proteins were concentrated to 5 mg/ml, flash frozen in 50 ul aliquots in N2(l), and stored at −80C.
GR LBD was diluted in assay buffer (20 mM TRIS pH 7.5, 50 mM NaCl, 0.25 mM TCEP) to a concentration of 50 nM. […] Triplicate FP measurements were scaled to maximal FP and averaged for each ligand concentration.

[1] = target: T2, mineralocorticoid receptor (Homo sapiens, UniProt P08235); settings: cited from earlier work
T2 sequence (P08235 1-984): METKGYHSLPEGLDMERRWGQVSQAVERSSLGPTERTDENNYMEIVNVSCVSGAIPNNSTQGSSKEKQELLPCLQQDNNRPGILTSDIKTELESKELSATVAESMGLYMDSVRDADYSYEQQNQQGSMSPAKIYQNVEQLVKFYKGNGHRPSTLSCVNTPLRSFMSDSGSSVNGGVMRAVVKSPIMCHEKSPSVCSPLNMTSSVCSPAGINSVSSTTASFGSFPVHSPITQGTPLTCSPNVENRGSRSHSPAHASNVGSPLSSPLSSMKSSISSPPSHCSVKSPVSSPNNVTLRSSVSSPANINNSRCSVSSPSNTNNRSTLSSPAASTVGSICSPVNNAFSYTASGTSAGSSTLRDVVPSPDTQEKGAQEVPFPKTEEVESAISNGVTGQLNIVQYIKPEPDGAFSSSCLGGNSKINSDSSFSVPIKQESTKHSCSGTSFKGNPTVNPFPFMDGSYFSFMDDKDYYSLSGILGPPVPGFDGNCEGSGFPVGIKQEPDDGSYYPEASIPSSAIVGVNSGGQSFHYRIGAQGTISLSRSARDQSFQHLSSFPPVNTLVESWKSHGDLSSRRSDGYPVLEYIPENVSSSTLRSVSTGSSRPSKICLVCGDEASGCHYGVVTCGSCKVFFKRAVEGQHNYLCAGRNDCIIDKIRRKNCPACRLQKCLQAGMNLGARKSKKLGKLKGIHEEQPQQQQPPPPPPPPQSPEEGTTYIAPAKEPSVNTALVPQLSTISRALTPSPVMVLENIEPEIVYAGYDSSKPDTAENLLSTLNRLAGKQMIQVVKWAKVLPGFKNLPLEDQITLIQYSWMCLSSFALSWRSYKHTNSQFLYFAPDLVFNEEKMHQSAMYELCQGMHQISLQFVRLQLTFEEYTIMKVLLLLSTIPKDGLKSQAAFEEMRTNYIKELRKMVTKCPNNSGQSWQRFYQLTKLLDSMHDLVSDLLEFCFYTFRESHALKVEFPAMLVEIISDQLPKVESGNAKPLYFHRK

SUM-159-PT cells = settings: Pac 10 nM, Dex 100 nM, C297 1 μM; 72 hours
Protocol: After compound treatment, cells were fixed in 10% trichloroacetic acid (TCA) at 4° C. overnight. […] Absorbance at λ=510 nm was measured, and relative percentage dead/alive cells was calculated based on minimal and maximal optical densities measured per plate. The experiment was performed in three biological replicates per cell line. P-values comparing the means of cell death percentages were obtained using the two-sample Student's t-test (Graphpad).

[2] = test system: MDA-MB-231 tumor xenograft; experiment: Murine TNBC xenograft, tumor re-growth after treatment; assay type: in vivo, SCID mice
Protocol: MDA-MB-231 tumors were established in the right pectoral mammary gland of n=23 five- or six-week old female SCID mice (Taconic). Tumor volume was measured by caliper and then calculated using the elliptical volume equation (43). […] Tumor volume was measured by caliper until reaching a volume of approximately 2000 mm^3 or 40 days post-treatment initiation. Tumor data were analyzed using the repeated measures ANOVA using SigmaPlot 11.2 (Systat Software), and p-values between treatment groups over time were obtained using the Holm-Sidak post-hoc test.
Next, we studied the in vivo effect of GR activity in paclitaxel-treated GR+TNBC-bearing female SCID mice (n=23). MDA-MB-231 xenograft tumors were established subcutaneously in the mammary fat pad of 6-week old female mice. […] The mice were treated daily for five days with intraperitoneally with C297 (or vehicle), one hour prior to paclitaxel. The one-hour pre-treatment of the GR modulator was intended to compete with endogenous GC (murine corticosterone and cortisol (68)) bound to the tumor cell GR LBD. The 5 sequential dosing was selected to mimic an intensive adjuvant chemotherapy schedule often used in early-stage TNBC. Following cessation of the 5d treatment, time to tumor xenograft re-growth was measured as a readout for time to relapse post-treatment (43, 46).

[3] = test system: GR-regulated gene expression in MDA-MB-231 cells; experiment: Gene expression microarray and analysis; assay type: cell-based, human
Protocol: MDA-MB-231 cells were grown to 80% confluence in 15-cm dishes in DMEM with 10% FBS. […] Following compound exposure, cells were washed in PBS, and lysed in RNA lysis buffer (Qiagen) overnight at -80° C. RNA extraction, with accompanying DNase treatment, was performed using the RNeasy kit (Qiagen) following the manufacturer's protocol. […] The University of Chicago Genomics Core facility carried out the reverse transcription on the samples, followed by microarray using the Affymetrix Human U133 Plus 2.0 platform. […] A principal components analysis (PCA) was performed using the prcomp function in R (Q-mode PCA using singular value decomposition). […] Dex-regulated genes were overlapped with a list of n=5,170 differentially-expressed tumor-derived genes (in the same direction) from GR-high versus GR-low BCs (52). Ingenuity Pathway Analysis (Qiagen) of the n=462 patient-relevant and antagonist-inhibited genes was performed to obtain Activation Z-scores of the most significant Diseases and Biofunctions (cell functions).

[4] = test system: GR chromatin association in MDA-MB-231 cells; experiment: GR ChIP-sequencing and analysis; assay type: cell-based, human; settings: 100 nM each, 60 minutes, normalized to vehicle
Protocol: MDA-MB-231 cells were grown to 80% confluence in 15-cm dishes in DMEM with 10% FBS, followed by 48h in DMEM supplemented with 2.5% charcoal-stripped FBS. […] Cells were cross-linked with 1% formaldehyde, quenched with glycine (final concentration of […]), and harvested. After cell lysis with ChIP lysis buffer (Magna ChIP A Chromatin Immunoprecipitation Kit, EMD Millipore), cells were sonicated to achieve the majority of DNA fragments between 200-400 bp. Input samples were preserved at -80° C. […] Following manufacturer's protocol, chromatin was eluted from GR ChIP and input samples. Library build and sequencing was performed at the University of Oregon Genomics Core facility using the NextSeq 500 sequencer. Quality control on sequences and adapter sequencing trimming was performed using Kapa Biosystems Illumina Library Quantification Kit. ChIP-seq analysis was carried out using the Galaxy platform (usegalaxy.org (111)). […] GR peaks for each treatment were normalized to its own input control sample. […] Selected GR peak locations in hg19 and GR peak maps were also individually analyzed using Integrative Genomics Viewer, IGV (Broad Institute (116)).

GR = target: T3, GR (Homo sapiens, UniProt P04150); settings: cited from earlier work
T3 sequence (P04150 1-777): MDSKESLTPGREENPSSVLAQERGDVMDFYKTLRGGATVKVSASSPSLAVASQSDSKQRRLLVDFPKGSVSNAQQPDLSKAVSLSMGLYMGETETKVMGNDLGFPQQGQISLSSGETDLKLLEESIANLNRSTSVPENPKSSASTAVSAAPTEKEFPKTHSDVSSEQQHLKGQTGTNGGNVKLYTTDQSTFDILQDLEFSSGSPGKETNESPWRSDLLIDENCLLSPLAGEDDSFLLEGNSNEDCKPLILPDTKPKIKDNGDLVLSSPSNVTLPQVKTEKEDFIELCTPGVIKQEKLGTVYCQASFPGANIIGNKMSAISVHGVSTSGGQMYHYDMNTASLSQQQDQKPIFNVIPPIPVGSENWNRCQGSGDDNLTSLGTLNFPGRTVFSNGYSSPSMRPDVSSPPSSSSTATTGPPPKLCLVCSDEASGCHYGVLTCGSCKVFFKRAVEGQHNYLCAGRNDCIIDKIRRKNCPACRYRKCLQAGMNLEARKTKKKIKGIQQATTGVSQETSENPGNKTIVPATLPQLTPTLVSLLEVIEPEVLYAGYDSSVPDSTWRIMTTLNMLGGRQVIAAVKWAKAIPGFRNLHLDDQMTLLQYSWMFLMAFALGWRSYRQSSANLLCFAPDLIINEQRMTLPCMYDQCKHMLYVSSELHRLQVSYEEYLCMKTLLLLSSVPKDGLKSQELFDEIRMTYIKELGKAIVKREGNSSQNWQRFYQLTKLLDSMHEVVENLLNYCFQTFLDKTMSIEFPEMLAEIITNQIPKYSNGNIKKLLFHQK

[5] = 50 nM GR LBD, 10 nM F-Dex, ligand 0 to 4000 nM
[6] = at least 1.3 fold-change over vehicle, 100 nM each, 4, 8 and 12 hours combined

Structure (SMILES): C[C@]12CCC(=O)C=C1CC[C@@H]1[C@@H]2[C@@H](O)C[C@@]2(C)[C@H]1CC[C@]2(O)C(=O)CO [cortisol]
- Fit of FP dose response curve (half-maximal FP signal) (GR LBD): able to fit data

Structure (SMILES): O=c1[nH]c(=O)c(Cc2cccc(C(F)(F)F)c2)c([C@H]2CC[C@H](c3ccccc3)CC2)[nH]1 [C335]
- Binding to the mineralocorticoid receptor [1]: bind the mineralocorticoid receptor
- Displacement of fluorescently-labeled Dex (F-Dex) from the GR LBD (GR LBD; [5]): low nM affinities
- Fit of FP dose response curve (half-maximal FP signal) (GR LBD): able to fit data

Structure (SMILES): C[C@]12CCC(=O)C[C@@H]1CC[C@@H]1[C@@H]2CC[C@]2(C)[C@@H](O)CC[C@@H]12 [DHT, dihydrotestosterone]
- Displacement of fluorescently-labeled Dex (F-Dex) from the GR LBD (GR LBD): did not observe GC competition

Structure (SMILES): CCOC[C@]12Cc3cnn(-c4ccc(F)cc4)c3C=C1CCN(S(=O)(=O)c1ccc(C(F)(F)F)cc1)C2 [C297]
- Cell viability with C297 treatment alone in vitro (MDA-MB-231 cells; monotherapy, SRB assay, FIG. 8A, cell line not stated): not cytotoxic; also recorded: did not reduce cell viability
- Paclitaxel cytotoxicity (percentage cell death) (SUM-159-PT cells): restored cytotoxic sensitivity; also recorded: modest, but significant, relative increase in paclitaxel cytotoxicity
- Tumor re-growth with C297 monotherapy in vivo ([2]; C297/Veh versus vehicle control, FIG. 8B): not cytotoxic; also recorded: did not cause a significant delay in tumor re-growth
- Genes for which both GR modulators antagonized GR induction or repression by at least 25% ([3]; 100 nM with 100 nM Dex): 3,066
- Antagonized GR-regulated genes shared with the other antagonist ([3]; C297 versus Mif, 100 nM): 87%
- Displacement of fluorescently-labeled Dex (F-Dex) from the GR LBD (GR LBD; [5]): low nM affinities
- Fit of FP dose response curve (half-maximal FP signal) (GR LBD): able to fit data

Structure (SMILES): CC(=O)O[C@H]1C(=O)[C@@]2(C)[C@H]([C@H](OC(=O)c3ccccc3)[C@]3(O)C[C@H](OC(=O)[C@H](O)[C@@H](NC(=O)c4ccccc4)c4ccccc4)C(C)=C1C3(C)C)[C@]1(OC(C)=O)CO[C@@H]1C[C@@H]2O [Pac, paclitaxel]
- Post-treatment tumor re-growth ([2]; C297 20 mg/kg/day one hour prior to pac 10 mg/kg/day, five days): significantly smaller than vehicle
- Time to tumor re-growth to a 6× increase of tumor volume ([2]; C297 20 mg/kg/day one hour prior to pac 10 mg/kg/day, five days, i.p.): 27 days

Structure (SMILES): C[C@@H]1C[C@H]2[C@@H]3CCC4=CC(=O)C=C[C@]4(C)[C@@]3(F)[C@@H](O)C[C@]2(C)[C@@]1(O)C(=O)CO [Dex, dexamethasone]
- Genome-wide GR peaks [4]: 8,448
- Paclitaxel cytotoxicity (percentage cell death) (MDA-MB-231 cells; Pac 10 nM, Dex 100 nM, C297 1 μM, 96 hours): dampened paclitaxel (10 nM) cytotoxicity
- Paclitaxel cytotoxicity (percentage cell death) (SUM-159-PT cells): dampened paclitaxel (10 nM) cytotoxicity
- Downregulated GC-mediated genes unique to Dex treatment ([3]; FIG. 9A): 41%
- Downregulated GC-mediated genes unique to Dex treatment, number ([3]; FIG. 9A): 1321
- Upregulated GC-mediated genes unique to Dex treatment ([3]; FIG. 9A): 50%
- Upregulated GC-mediated genes unique to Dex treatment, number ([3]; FIG. 9A): 1363
- Number of downregulated genes [3, 6]: 3,202
- Number of upregulated genes [3, 6]: 2,719

Structure (SMILES): CNCC(Cl)c1ccc(OC(C)=O)cc1.Cl (stereo not drawn) [CpdA]
- Displacement of H^3-Dex in cell lysates (GR): displace H^3-Dex in cell lysates
- Displacement of fluorescently-labeled Dex (F-Dex) from the GR LBD (GR LBD; [5]): did not displace F-Dex from the GR LBD
- Displacement of fluorescently-labeled Dex (F-Dex) from the GR LBD (GR LBD; 50 nM GR LBD, 10 nM F-Dex, ligand 0 to 4000 nM, listed as Compound A): does not bind to ligand pocket
- Fit of FP dose response curve (half-maximal FP signal) (GR LBD): does not bind the GR LBD
